Measured values: a melting point compilation (Tetko et al.; mined from patent text by program, amines drawn as free bases though some values may be those of a salt)

Compound	melting point
O=C(O)C(O)c1cccnc1 (centres undefined)	140 °C
CO[C@]1(c2cc(F)cc(OCc3ccc4c(ccc(=O)n4C)c3)c2)CCO[C@@H](C)C1	91 to 93 °C
CN(CCO)C(=O)Nc1ccc([N+](=O)[O-])c(C(F)(F)F)c1	180 to 181 °C
COC(=O)c1cc(C=O)c(NS(C)(=O)=O)c([N+](=O)[O-])c1	158 to 160 °C
CC(C)(CO)NC(=O)CBr	107 to 109 °C
CCn1nc(-c2ccccc2)c(C(C)=O)c(Nc2cc(Br)cc3cccnc23)c1=O	147 to 148 °C
CC(C)COC(=O)Nc1ccc(Sc2c(O)c3c(Cl)cc(Cl)cc3[nH]c2=O)cc1	> 300 °C
O=S(=O)(c1cn(-c2c(Cl)cc(C(F)(F)F)cc2Cl)c(Cl)n1)C(F)(F)F	182 °C
CCCC(=O)c1c[nH]c2c(COC(=O)c3ccccc3)cccc2c1=O	115 to 117 °C
CCCCCCCCCCCCCCCCCCCCOC(=O)P(=O)(O)O	87 to 89 °C
O=C(Oc1cc(O)ccn1)c1ccccc1	124 to 127 °C
CCc1ncnc(Cl)c1I	56 to 57 °C
OC(CCl)CNc1ccc(Cl)c(Cl)c1 (centres undefined)	51 to 53 °C
O=C(NN=CC=Cc1ccc([N+](=O)[O-])o1)c1cn2ccsc2n1	332 °C
CCOC(=O)c1cc(C(Br)Br)cnc1Br	88 to 89 °C
CCOC(=O)c1cc2c(=O)n(C)c3ccccc3n2c1	197 to 198 °C
O=C1c2cc(Cl)c(Cl)cc2-c2cc(O)cc3cccc1c23	355 to 360 °C

Next, values leading:

melting point	Compound
109 to 111 °C	O=C(c1ccc(Cl)cc1)n1cc(Cc2cc(=O)n(C3CCCCC3)[nH]2)c2ccccc21
173 to 175 °C	Cc1ccc(-c2ncc(NC(=O)OCc3ccccc3)c(=O)n2CC(=O)NC(Cc2ccccc2)C(=O)C(F)(F)F)cc1 (centres undefined)
112 °C	COc1ccc(Cn2cc(OCc3ccccc3)c(=O)cc2C(=O)NCCNCc2ccccc2)cc1
241 to 243 °C	O=C(O)c1cc(/C=C/c2ccc(O)cc2)ccc1O
143 to 144 °C	CCCCc1nc2c(N)nc3ccccc3c2n1CCCNC(=S)Nc1ccccc1
163 °C	Cn1nc(-c2cc(C(=O)O)c(Cl)cc2F)c(C=O)c1C(F)(F)F
210 °C	Cc1ccc2c(c1)C=Cc1cc(C)ccc1C2c1cn(Cc2ccc(C(=O)Nc3nc(CC(=O)O)cs3)o2)c(=O)[nH]c1=S
189 to 190 °C	CO/C(=C\c1ccc(OCCc2nc(-c3ccccc3)oc2C)c2ccsc12)C(=O)O
205 °C	COc1ccc(C(Nc2ccc(C(=N)NO)cc2)C(=O)O)c(OCCO)c1 (racemic)
148 to 150 °C	COc1ccccc1C=CC(=O)C1=C(O)C(=C(C)Nc2ccccc2N)C(=O)OC1=O
223 to 226 °C	CCOc1cc(Cc2cnc(N)nc2N)cc2c1OC(C)(C)C=C2c1ccncc1
165 to 166 °C	Cc1nnc(-c2ccc3occ(-c4cnn(Cc5ccccc5C(F)(F)F)c4)c3c2)o1
236 to 237 °C	CCOc1ccc(-c2nc(-c3cc(C(=O)O)ccn3)cs2)cc1OCC
149 to 150 °C	Fc1ccccc1Cn1c(-c2ccc3c(c2)OCO3)nc2ccccc21
163 to 165 °C	N=C(Nc1ccccc1)Nc1ncccc1OCc1c(Cl)cccc1Cl
212 to 214 °C	O=C1c2ccccc2-c2c1c(Cl)nc1cc(OCc3ccccc3)ccc21
159 to 160 °C	N#Cc1cc(-c2ccccc2)[nH]c1Sc1ccccc1N
148 to 150 °C	Cc1ccc(S(=O)(=O)N2CCC[C@H](C(C#N)(c3ccccc3)c3ccccc3)C2)cc1
116 to 118 °C	Cn1c2ccccc2c2c3ccccc3ccc21
233 to 235 °C	CCOC(=O)C1=C(O)CCn2c1nc1ccccc12
142 to 143 °C	CC(C)CCC(O)C(C)C1CC=C2C3=C(CCC21C)C1(C)CCC(OC(=O)c2ccccc2)C(C)(C)C1CC3 (centres undefined)
98 °C	O=C(N[C@@H](CNC(=O)c1ccc(C2CC2C(=O)NC2=NCCCN2)s1)C(=O)O)OCc1ccccc1 (some centres undefined)
